The text below walks through data of patent EP4603105A1, “PHARMACEUTICAL COMPOSITION CONTAINING CYCLIC COMPOUND HAVING SELECTIVE KRAS INHIBITORY EFFECT AGAINST HRAS AND NRAS” (CHUGAI SEIYAKU KABUSHIKI KAISHA, priority 2022, dated 2024).

The term IC50 denotes the concentration that gives 50% inhibition. The low end stands for inhibition by little substance, the high end for a need for much substance.

*1 amine or outer side, *2 acyl side, *3 side chain or, on linkers, in order; H or OH if unused. Where a SMILES comes first, the peptide text is derived from it. Bridges are numbered along the chain shown (N, C = ends). [ ]: non-standard residue; d: D form. The star is where a group is joined. hPhe(3-Cl-4-CF3) = N[C@@H](CCc1ccc(C(F)(F)F)c(Cl)c1)C(=O)O; X19 = O=C([C@H](Cc1ccc(C(F)(F)F)cc1)N(CCCF)[*:1])[*:2]; X45 = CCCN([C@@H](CC1CCC(F)(F)CC1)C(=O)[*:2])[*:1]; NMeGly(cPent) = CN[C@H](C(=O)O)C1CCCC1; NMeD = CN[C@@H](CC(=O)O)C(=O)O; NMeL = CN[C@@H](CC(C)C)C(=O)O; Morpholide = C1CN(*)CCO1; NMeA = CN[C@@H](C)C(=O)O; Ac5c = NC1(C(=O)O)CCCC1; Aze = O=C(O)[C@@H]1CCN1; Sar = CNCC(=O)O

Experiment [1] concerns the target GDP-bound NRAS wild-type protein (Homo sapiens, UniProt P01111). The experiment in a line: Binding to NRAS by surface plasmon resonance (SPR), KD and KD ratio to KRAS. As to conditions: ratio of the KD value with respect to GDP-bound NRAS wild-type protein to the KD value with respect to KRAS. In outline:
(§1)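 Single-cycle kinetics on GDP-loaded biotin-Avi RAS captured to ~100–300 RU; 75 s ascending injections, 100 µL/min, 30°C. HBS pH 7.4 + 10 mM MgCl2/10 µM GDP/4% DMSO. 1:1 fit, KD.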
Background: In SPR one partner is held on a chip, and binding of the other changes the refractive index at the surface.

In the next experiment the target is HRAS wild-type protein (Homo sapiens, UniProt P01112). Nature of the experiment: Binding to HRAS by surface plasmon resonance (SPR), KD and KD ratio to KRAS. As to conditions: ratio of the KD value with respect to HRAS wild-type protein to the KD value with respect to KRAS. In outline:
as §1

For experiment [2], the system named is human lung cancer strain NCI-H441. The experiment is classed as cell-based. In outline: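 Proliferation was scored by […] measured after the reagent was added to cultures kept at 37°C in 5% carbon dioxide.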

Sequence of HRAS wild-type protein (P01112 whole entry): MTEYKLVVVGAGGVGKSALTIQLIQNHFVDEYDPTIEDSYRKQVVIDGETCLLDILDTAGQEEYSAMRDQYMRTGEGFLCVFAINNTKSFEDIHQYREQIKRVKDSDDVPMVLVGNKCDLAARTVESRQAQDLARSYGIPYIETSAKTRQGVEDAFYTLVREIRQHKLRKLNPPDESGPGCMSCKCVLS
Sequence of GDP-bound NRAS wild-type protein (P01111 whole entry): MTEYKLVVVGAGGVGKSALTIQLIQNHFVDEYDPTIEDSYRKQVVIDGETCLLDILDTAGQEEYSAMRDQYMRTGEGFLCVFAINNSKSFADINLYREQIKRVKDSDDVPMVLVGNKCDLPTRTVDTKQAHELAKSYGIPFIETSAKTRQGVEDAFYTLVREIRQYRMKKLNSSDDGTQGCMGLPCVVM

As to `CC[C@H](C)[C@@H]1NC(=O)[C@H](CC(C)C)NC(=O)C[C@@H](C(=O)N2CCOCC2)N(C)C(=O)[C@H](C2CCCC2)N(C)C(=O)C2(CCCC2)NC(=O)[C@@H]2CCCN2C(=O)[C@H](CCc2cc(F)c(C(F)(F)F)c(F)c2)NC(=O)CN(C)C(=O)[C@H](Cc2ccc(C(F)(F)F)cc2)N2CCCCC[C@@H](C2=O)N(C)C(=O)CN(C)C1=O` [PP0516], the “NRAS /KRAS” value in experiment [1] is “B (a compound having 3 or more and less than 10 is denoted as B)”. The “HRAS /KRAS” value at HRAS wild-type protein was “B (a compound having 3 or more and less than 10 is denoted as B)”. Further, the 50% inhibitory concentration (IC50) in experiment [2] was found to be 457 nM.

In the case of `CC[C@H](C)[C@@H]1NC(=O)[C@H](CC(F)(F)F)N(C)C(=O)C[C@@H](C(=O)N2CCOCC2)N(C)C(=O)[C@H](C2CCCC2)N(C)C(=O)C2(CCCC2)NC(=O)[C@@H]2CCCN2C(=O)[C@H](CCc2cc(F)c(C(F)(F)F)c(F)c2)NC(=O)CN(C)C(=O)[C@H](Cc2ccc(C(F)(F)F)cc2)N2CCCCC[C@@H](C2=O)N(C)C(=O)CN(C)C1=O` [PP0520], in experiment [1], the “NRAS /KRAS” value is “B (a compound having 3 or more and less than 10 is denoted as B)”. In addition, the “HRAS /KRAS” value at HRAS wild-type protein was “B (a compound having 3 or more and less than 10 is denoted as B)”. For the same molecule, 17.1 nM corresponded to half-maximal inhibition in experiment [2] (IC50).

Consider `CC[C@H](C)[C@@H]1NC(=O)[C@@H]2CCCCCN2C(=O)C[C@@H](C(=O)N2CCOCC2)N(C)C(=O)[C@H](C2CCCC2)N(C)C(=O)C2(CCCC2)NC(=O)[C@@H]2CCCN2C(=O)[C@H](CCc2cc(F)c(C(F)(F)F)c(F)c2)NC(=O)CN(C)C(=O)[C@H](Cc2ccc(C(F)(F)F)cc2)N2CCCCC[C@@H](C2=O)N(C)C(=O)CN(C)C1=O` [PP0521], for which the “NRAS /KRAS” value in experiment [1] was “B (a compound having 3 or more and less than 10 is denoted as B)”. The “HRAS /KRAS” value at HRAS wild-type protein was “B (a compound having 3 or more and less than 10 is denoted as B)”. In addition, half-maximal inhibition in experiment [2] (IC50) required 586 nM.

For the molecule `CC(C)C[C@H]1C(=O)N[C@@H](C2CCC2)C(=O)N(C)CC(=O)N(C)[C@H]2CCCCCN(C2=O)[C@@H](Cc2ccc(C(F)(F)F)cc2)C(=O)N(C)CC(=O)N[C@@H](CCc2cc(F)c(C(F)(F)F)c(F)c2)C(=O)N2CCC[C@H]2C(=O)NC2(CCCC2)C(=O)N(C)[C@@H](C2CCCC2)C(=O)N(C)[C@H](C(=O)N2CCOCC2)CC(=O)N1C` [PP0522], in experiment [1], the “NRAS /KRAS” value was “B (a compound having 3 or more and less than 10 is denoted as B)”. Further, the “HRAS /KRAS” value at HRAS wild-type protein was “B (a compound having 3 or more and less than 10 is denoted as B)”. In experiment [2], this molecule returned an IC50 of 83 nM.

`CCC(CC)[C@@H]1NC(=O)[C@H](CC(C)C)N(C)C(=O)C[C@@H](C(=O)N2CCOCC2)N(C)C(=O)[C@H](C2CCCC2)N(C)C(=O)C2(CCCC2)NC(=O)[C@@H]2CCCN2C(=O)[C@H](CCc2cc(F)c(C(F)(F)F)c(F)c2)NC(=O)CN(C)C(=O)[C@H](Cc2ccc(C(F)(F)F)cc2)N2CCCCC[C@@H](C2=O)N(C)C(=O)CN(C)C1=O` [PP0523]: in experiment [1], the “NRAS /KRAS” value is “A (a compound having 10 or more and less than 20 is denoted as A)”. The “HRAS /KRAS” value on HRAS wild-type protein was “B (a compound having 3 or more and less than 10 is denoted as B)”. The molecule also registered an IC50 in experiment [2] of 734 nM.

As for `CC[C@H](C)[C@@H]1NC(=O)[C@H](CC(C)C)N(C)C(=O)C[C@@H](C(=O)N2CCOCC2)N(C)C(=O)[C@H](C2CCCC2)N(C)C(=O)C2(CCCC2)NC(=O)[C@@H]2CCCN2C(=O)[C@H](CCc2ccc(C(F)(F)F)c(Cl)c2)NC(=O)CN(C)C(=O)[C@H](Cc2ccc(C(F)(F)F)cc2)N(CCCF)C(=O)CN(C)C(=O)CN(C)C1=O` [PP0524] ([NMeL]I[Sar][Sar][X19][Sar][hPhe(3-Cl-4-CF3)]P[Ac5c][NMeGly(cPent)][NMeD]-Morpholide; lactam N-11), the “NRAS /KRAS” value in experiment [1] is “B (a compound having 3 or more and less than 10 is denoted as B)”. Besides, the “HRAS /KRAS” value at HRAS wild-type protein is “C (A compound having a KD ratio of 0.1 or more and less than 3 is denoted as C)”. The molecule further yielded an IC50 in experiment [2] of 4.8 nM.

In the case of `CC[C@H](C)[C@@H]1NC(=O)[C@H](CC(C)C)N(C)C(=O)C[C@@H](C(=O)N2CCOCC2)N(C)C(=O)[C@H](C2CCCC2)N(C)C(=O)C2(CCCC2)NC(=O)[C@@H]2CCCN2C(=O)[C@H](CCc2ccc(C(F)(F)F)c(Cl)c2)NC(=O)CN(C)C(=O)[C@H](Cc2ccc(C(F)(F)F)cc2)N(CCCF)C(=O)[C@@H]2CCN2C(=O)[C@H](C)N(C)C1=O` [PP0525] ([NMeL]I[NMeA][Aze][X19][Sar][hPhe(3-Cl-4-CF3)]P[Ac5c][NMeGly(cPent)][NMeD]-Morpholide; lactam N-11), in experiment [1], the “NRAS /KRAS” value was “C (A compound having a KD ratio of 0.1 or more and less than 3 is denoted as C)”. Also, at HRAS wild-type protein, the “HRAS /KRAS” value was “B (a compound having 3 or more and less than 10 is denoted as B)”. This molecule also registered an IC50 in experiment [2] of 2.1 nM.

With `CCCN1C(=O)CN(C)C(=O)CN(C)C(=O)[C@H]([C@@H](C)CC)NC(=O)[C@H](CC(C)C)N(C)C(=O)C[C@@H](C(=O)N2CCOCC2)N(C)C(=O)[C@H](C2CCCC2)N(C)C(=O)C2(CCCC2)NC(=O)[C@@H]2CCCN2C(=O)[C@H](CCc2ccc(C(F)(F)F)c(Cl)c2)NC(=O)CN(C)C(=O)[C@@H]1CC1CCC(F)(F)CC1` [PP0526] ([NMeL]I[Sar][Sar][X45][Sar][hPhe(3-Cl-4-CF3)]P[Ac5c][NMeGly(cPent)][NMeD]-Morpholide; lactam N-11), the “NRAS /KRAS” value in experiment [1] was “B (a compound having 3 or more and less than 10 is denoted as B)”. For the same molecule, the “HRAS /KRAS” value on HRAS wild-type protein was “C (A compound having a KD ratio of 0.1 or more and less than 3 is denoted as C)”. Further, in experiment [2], the IC50 is 6.6 nM.

On to `CCCN1C(=O)[C@@H]2CCN2C(=O)[C@H](C)N(C)C(=O)[C@H]([C@@H](C)CC)NC(=O)[C@H](CC(C)C)N(C)C(=O)C[C@@H](C(=O)N2CCOCC2)N(C)C(=O)[C@H](C2CCCC2)N(C)C(=O)C2(CCCC2)NC(=O)[C@@H]2CCCN2C(=O)[C@H](CCc2ccc(C(F)(F)F)c(Cl)c2)NC(=O)CN(C)C(=O)[C@@H]1CC1CCC(F)(F)CC1` [PP0527] ([NMeL]I[NMeA][Aze][X45][Sar][hPhe(3-Cl-4-CF3)]P[Ac5c][NMeGly(cPent)][NMeD]-Morpholide; lactam N-11), for which the “NRAS /KRAS” value in experiment [1] is “C (A compound having a KD ratio of 0.1 or more and less than 3 is denoted as C)”. Further, the “HRAS /KRAS” value on HRAS wild-type protein was “C (A compound having a KD ratio of 0.1 or more and less than 3 is denoted as C)”. The molecule further came in with an IC50 in experiment [2] of 5.7 nM.

Take `CC[C@H](C)[C@@H]1NC(=O)[C@H](CC(C)C)N(C)C(=O)C[C@@H](C(=O)N2CCOCC2)N(C)C(=O)[C@H](C2CCCC2)N(C)C(=O)C2(CCCC2)NC(=O)[C@@H]2CCCN2C(=O)[C@H](CCc2ccc(C(F)(F)F)c(Cl)c2)NC(=O)CN(C)C(=O)[C@H](Cc2ccc(Cl)cc2)N2CC=CC[C@@H](C2=O)N(C)C(=O)CN(C)C1=O` [PP0533]: in experiment [1], the “NRAS /KRAS” value was “C (A compound having a KD ratio of 0.1 or more and less than 3 is denoted as C)”. Besides, the “HRAS /KRAS” value on HRAS wild-type protein was “C (A compound having a KD ratio of 0.1 or more and less than 3 is denoted as C)”. In experiment [2], the IC50 was 8.9 nM.

For the molecule `CC[C@H](C)[C@@H]1NC(=O)[C@H](CC(C)C)N(C)C(=O)C[C@@H](C(=O)N2CCOCC2)N(C)C(=O)[C@H](C2CCCC2)N(C)C(=O)C2(CCCC2)NC(=O)[C@@H]2CCCN2C(=O)[C@H](CCc2ccc(C(F)(F)F)c(Cl)c2)NC(=O)CN(C)C(=O)[C@H](Cc2ccc(OC)cc2)N2CCCC[C@@H](C2=O)N(C)C(=O)CN(C)C1=O` [PP0534], the “NRAS /KRAS” value in experiment [1] was “B (a compound having 3 or more and less than 10 is denoted as B)”. For the same molecule, the “HRAS /KRAS” value on HRAS wild-type protein was “B (a compound having 3 or more and less than 10 is denoted as B)”. This molecule also registered a half-inhibitory concentration (IC50) in experiment [2] of 16.7 nM.
